Where two headings read alike, the source gives them in different places.

One assay has as its target T1, cyclin D1/cdk 4 enzyme (Homo sapiens, UniProt P11802).
T1 construct: made in house; host or cells: Sf9 insect cells, recombinant baculovirus
Nature of the assay: CDK4 ELISA kinase assay (phospho-Rb ser 795 detection). It counts as biochemical. The following applies: 200 μM ATP. The gist of the method: (§1)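 ELISA format: plate-bound GST-Rb, 200 μM ATP, Sf9 cyclin/CDK enzyme, 1 h at 30° C; then anti-pRb Ser795 primary overnight at 4° C, HRP secondary, TMB. IC50 after no-substrate background subtraction.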

Another assay has as its target T2, cyclin E/CDK2 enzyme (Homo sapiens, UniProt P24941).
T2 construct: made in house; host or cells: Sf9 insect cells, recombinant baculovirus
Nature of the assay: CDK2 ELISA kinase assay (phospho-Rb ser 795 detection). The following applies: In Vitro Enzyme Assays, read-out: CDK2 IC50. It counts as biochemical. In a few lines: as §1

For a further assay, the target named is T3, cyclin B/CDK1 enzyme (Homo sapiens, UniProt P06493).
T3 construct: purchased New England BioLabs; host or cells: Sf9 insect cells, recombinant baculovirus
T3 sequence (P06493 whole entry): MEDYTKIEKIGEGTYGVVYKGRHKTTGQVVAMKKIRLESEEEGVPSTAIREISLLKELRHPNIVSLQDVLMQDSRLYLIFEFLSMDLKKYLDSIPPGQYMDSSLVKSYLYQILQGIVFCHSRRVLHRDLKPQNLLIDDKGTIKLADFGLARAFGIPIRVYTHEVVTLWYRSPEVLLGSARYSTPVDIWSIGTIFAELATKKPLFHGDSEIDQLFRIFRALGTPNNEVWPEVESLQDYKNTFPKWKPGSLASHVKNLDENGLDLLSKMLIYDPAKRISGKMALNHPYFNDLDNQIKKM
T3 sequence (P14635 whole entry partner): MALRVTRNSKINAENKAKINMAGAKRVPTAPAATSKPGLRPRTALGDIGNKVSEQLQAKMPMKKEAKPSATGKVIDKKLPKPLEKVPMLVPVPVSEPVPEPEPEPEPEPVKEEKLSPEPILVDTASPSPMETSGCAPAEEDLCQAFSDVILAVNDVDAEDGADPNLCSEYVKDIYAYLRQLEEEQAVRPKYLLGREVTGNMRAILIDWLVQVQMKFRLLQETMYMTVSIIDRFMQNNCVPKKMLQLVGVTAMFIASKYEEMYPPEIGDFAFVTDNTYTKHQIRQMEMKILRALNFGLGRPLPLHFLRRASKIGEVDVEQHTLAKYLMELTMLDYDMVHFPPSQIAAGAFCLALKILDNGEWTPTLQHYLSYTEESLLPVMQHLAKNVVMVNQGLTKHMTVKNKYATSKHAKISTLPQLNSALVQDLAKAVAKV
Nature of the assay: CDK1 ELISA kinase assay (phospho-Rb ser 795 detection). It counts as biochemical. In a few lines:
as §1

The next assay relates to LoVo. The assay is described as follows: Cytotoxicity assay (SRB), LoVo. It counts as cell-based. The settings on record: Homo sapiens, LoVo, 72 h, read-out: In Vitro Cellular Activity IC50 LOVO. In a few lines: (§2)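 Growth inhibition, SRB method: 3-day continuous compound exposure for HCT-116, LoVo and MCF-7 and 6-day exposure for BT474. Absorbance at 540 nm reflects surviving cell protein relative to controls.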

The next assay has as its system MCF-7. The assay is described as follows: Cytotoxicity assay (SRB), MCF-7. It counts as cell-based. The following applies: Homo sapiens, MCF7, 72 h, read-out: In Vitro Cellular Activity IC50 MCF-7. In a few lines:
as §2

A further assay has as its system BT474. Nature of the assay: Cytotoxicity assay (SRB), BT474. In kind it is cell-based. The following applies: Homo sapiens, BT-474, 144 h, read-out: In Vitro Cellular Activity IC50 BT474. The gist of the method: as §2
For a further assay, the system named is HCT-116. The assay is described as follows: Cytotoxicity assay (SRB), HCT-116. In kind it is cell-based. The following applies: Homo sapiens, HCT-116, 72 h, read-out: In Vitro Cellular Activity IC50 HCT116. The gist of the method:
as §2

Setting [1] is: In Vitro Enzyme Assays, read-out: CDK4 IC50.
Where [2] appears, read: In Vitro Enzyme Assays, read-out: CDK1 IC50.

T1 sequence (P11802 whole entry, species assumed): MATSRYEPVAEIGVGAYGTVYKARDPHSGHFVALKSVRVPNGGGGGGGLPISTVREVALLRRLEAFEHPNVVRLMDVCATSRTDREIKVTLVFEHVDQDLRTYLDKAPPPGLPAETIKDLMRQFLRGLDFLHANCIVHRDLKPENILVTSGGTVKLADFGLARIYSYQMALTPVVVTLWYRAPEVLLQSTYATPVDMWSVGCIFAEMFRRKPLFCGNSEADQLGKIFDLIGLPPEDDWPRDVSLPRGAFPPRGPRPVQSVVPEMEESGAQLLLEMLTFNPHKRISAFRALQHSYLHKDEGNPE
T1 sequence (P24385 whole entry partner, species assumed): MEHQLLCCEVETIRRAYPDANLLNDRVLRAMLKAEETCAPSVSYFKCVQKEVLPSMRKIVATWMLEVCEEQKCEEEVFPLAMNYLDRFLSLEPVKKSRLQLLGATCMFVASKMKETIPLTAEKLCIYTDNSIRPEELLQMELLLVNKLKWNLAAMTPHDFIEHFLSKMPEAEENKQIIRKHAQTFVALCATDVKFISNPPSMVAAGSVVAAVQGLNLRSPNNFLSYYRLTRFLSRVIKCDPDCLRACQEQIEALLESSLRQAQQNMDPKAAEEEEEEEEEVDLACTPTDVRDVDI

With `CC(=O)Oc1cc(CN/C=C2\C(=O)NC(=O)c3ccc(Br)cc32)cc2c1OC(C)(C)O2` [Example 268, 6-({[(Z)-(6-Bromo-1,3-dioxo-2,3-dihydroisoquinolin-4(1H)-ylidene)methyl]amino}methyl)-2,2-dimethyl-1,3-benzodioxol-4-yl acetate], the IC50 on cyclin D1/cdk 4 enzyme (setting [1]) is 34.7 µM; at cyclin E/CDK2 enzyme, 23.6 µM; at cyclin B/CDK1 enzyme (setting [2]), 1.2 µM; in the assay with LoVo (LoVo cells, SRB, three days), 47 µM; in the assay with MCF-7 (MCF-7 cells, SRB, three days), 35 µM; with BT474 (BT474 cells, SRB, 6 days), above 50 µM. Further, the IC50 in the assay with HCT-116 (HCT116 cells, SRB, three days) turned out to be 29 µM.
For `CC1(C)Oc2cc(CN/C=C3\C(=O)NC(=O)c4ccc(Br)cc43)cc(OC(=O)C3CC3)c2O1` [Example 269, 6-({[(Z)-(6-Bromo-1,3-dioxo-2,3-dihydroisoquinolin-4(1H)-ylidene)methyl]amino}methyl)-2,2-dimethyl-1,3-benzodioxol-4-yl cyclopropanecarboxylate], the IC50 is above 50 µM at cyclin D1/cdk 4 enzyme (setting [1]); 24.7 µM on cyclin E/CDK2 enzyme; 1.9 µM on cyclin B/CDK1 enzyme (setting [2]); 41 µM with LoVo (LoVo cells, SRB, three days); 29 µM with MCF-7 (MCF-7 cells, SRB, three days); 43 µM in the assay on BT474 (BT474 cells, SRB, 6 days). Besides, the IC50 with HCT-116 (HCT116 cells, SRB, three days) turned out to be 25 µM.
Regarding `CN(C)CCCc1ccc(N/C=C2\C(=O)NC(=O)c3ccc(Br)cc32)cc1` [Example 270, (4Z)-6-Bromo-4-[({4-[3-(dimethylamino)propyl]phenyl}amino)methylene]isoquinoline-1,3(2H,4H)-dione], the IC50 on cyclin D1/cdk 4 enzyme (setting [1]) is 3 µM; at cyclin E/CDK2 enzyme, 38.8 µM; on cyclin B/CDK1 enzyme (setting [2]) it was above 50 µM; in the assay on LoVo (LoVo cells, SRB, three days) it was 24 µM; in the assay on MCF-7 (MCF-7 cells, SRB, three days), 7.2 µM; with BT474 (BT474 cells, SRB, 6 days), 27 µM. Moreover, the IC50 in the assay with HCT-116 (HCT116 cells, SRB, three days) was found to be 13 µM.
As to `CONCCCc1ccc(N/C=C2\C(=O)NC(=O)c3ccc(Br)cc32)cc1` [Example 274, (4Z)-6-Bromo-4-[({4-[3-(methoxyamino)propyl]phenyl}amino)methylene]isoquinoline-1,3(2H,4H)-dione], the IC50 worked out at 1.9 µM on cyclin D1/cdk 4 enzyme (setting [1]); 2.8 µM at cyclin E/CDK2 enzyme; 15.1 µM on cyclin B/CDK1 enzyme (setting [2]); 12.5 µM with LoVo (LoVo cells, SRB, three days); 10.3 µM in the assay on MCF-7 (MCF-7 cells, SRB, three days); 12 µM with BT474 (BT474 cells, SRB, 6 days). The IC50 with HCT-116 (HCT116 cells, SRB, three days) was 9.5 µM.
For `CN(C)CCCN(C)c1ccc(N/C=C2\C(=O)NC(=O)c3ccc(Br)cc32)cc1` [Example 275, (4Z)-6-Bromo-4-[({4-[[3-(dimethylamino)propyl](methyl)amino]phenyl}amino)methylene]isoquinoline-1,3(2H,4H)-dione], the half-inhibitory concentration (IC50) on cyclin D1/cdk 4 enzyme (setting [1]) was 14.4 µM; at cyclin E/CDK2 enzyme it was above 50 µM; on cyclin B/CDK1 enzyme (setting [2]) it was above 50 µM; in the assay with LoVo (LoVo cells, SRB, three days) it was 8.6 µM; with MCF-7 (MCF-7 cells, SRB, three days), 5.3 µM; in the assay on BT474 (BT474 cells, SRB, 6 days) it was 10 µM. In the assay with HCT-116 (HCT116 cells, SRB, three days), the IC50 is 4.2 µM.
In the case of `CN1CCC(Oc2ccc(N/C=C3\C(=O)NC(=O)c4ccc(Br)cc43)cc2)C1` (stereo not drawn) [Example 276, (4Z)-6-Bromo-4-[({4-[(1-methylpyrrolidin-3-yl)oxy]phenyl}amino)methylene]isoquinoline-1,3(2H,4H)-dione], the IC50 on cyclin D1/cdk 4 enzyme (setting [1]) is 42.5 µM; at cyclin E/CDK2 enzyme, above 50 µM; on cyclin B/CDK1 enzyme (setting [2]) it was above 50 µM; with LoVo (LoVo cells, SRB, three days), 6.2 µM; in the assay on MCF-7 (MCF-7 cells, SRB, three days) it was 4.4 µM; with BT474 (BT474 cells, SRB, 6 days) it was 8.3 µM. For the same molecule, the IC50 in the assay with HCT-116 (HCT116 cells, SRB, three days) stood at 3.9 µM.
`CN1CCN(CCCNC=C2C(=O)NC(=O)c3ccc(-n4cccc4)cc32)CC1` [Example 279, 4-{[3-(4-Methyl-piperazin-1-yl)-propylamino]-methylene}-6-pyrrol-1-yl-4H-isoquinoline-1,3-dione]: the IC50 was 0.19 µM on cyclin D1/cdk 4 enzyme (setting [1]); above 50 µM on cyclin E/CDK2 enzyme; above 50 µM at cyclin B/CDK1 enzyme (setting [2]); 11 µM with LoVo (LoVo cells, SRB, three days); 5.3 µM with MCF-7 (MCF-7 cells, SRB, three days); 6 µM with BT474 (BT474 cells, SRB, 6 days). In the assay with HCT-116 (HCT116 cells, SRB, three days), the concentration for half-maximal inhibition (IC50) stood at 10 µM.
As to `CN(C)NC(=O)c1ccc(N/C=C2\C(=O)NC(=O)c3ccc(Br)cc32)cc1` [Example 280, 4-{[(Z)-(6-Bromo-1,3-dioxo-2,3-dihydroisoquinolin-4(1H)-ylidene)methyl]amino}-N′,N′-dimethylbenzohydrazide], the IC50 at cyclin D1/cdk 4 enzyme (setting [1]) was 29 µM; on cyclin E/CDK2 enzyme, 4.5 µM; on cyclin B/CDK1 enzyme (setting [2]) it was above 50 µM; in the assay with LoVo (LoVo cells, SRB, three days), 32 µM; in the assay with MCF-7 (MCF-7 cells, SRB, three days), 17 µM; in the assay with BT474 (BT474 cells, SRB, 6 days), 28 µM. Also, the IC50 with HCT-116 (HCT116 cells, SRB, three days) turned out to be 21 µM.
Regarding `CN(C)NC(=O)Cc1ccc(N/C=C2\C(=O)NC(=O)c3ccc(Br)cc32)cc1` [Example 283, 2-(4-{[(Z)-(6-Bromo-1,3-dioxo-2,3-dihydroisoquinolin-4(1H)-ylidene)methyl]amino}phenyl)-N′,N′-dimethylacetohydrazide], the IC50 is 10 µM at cyclin D1/cdk 4 enzyme (setting [1]); above 50 µM on cyclin E/CDK2 enzyme; above 50 µM on cyclin B/CDK1 enzyme (setting [2]); 17 µM with LoVo; 9.8 µM in the assay on MCF-7; 16 µM in the assay with BT474. The IC50 in the assay on HCT-116 worked out at 17 µM.
Consider `COC[C@@H]1CCCN1Cc1ccc(N/C=C2\C(=O)NC(=O)c3ccc(I)cc32)cc1` [Example 285, (4Z)-6-Iodo-4-{[(4-{[(2S)-2-(methoxymethyl)pyrrolidin-1-yl]methyl}phenyl)amino]methylene}isoquinoline-1,3(2H,4H)-dione], for which the IC50 on cyclin D1/cdk 4 enzyme (setting [1]) is 0.76 µM; on cyclin E/CDK2 enzyme, above 50 µM; on cyclin B/CDK1 enzyme (setting [2]) it was above 50 µM; in the assay on LoVo (LoVo cells, SRB, three days), 3.6 µM; in the assay with MCF-7 (MCF-7 cells, SRB, three days), 0.79 µM; with BT474 (BT474 cells, SRB, 6 days), 0.37 µM. In addition, the IC50 in the assay with HCT-116 (HCT116 cells, SRB, three days) is 3.6 µM.
In the case of `CCCOc1ccc(CN/C=C2\C(=O)NC(=O)c3ccc(I)cc32)cc1OC(=O)CCl` [Example 293, 5-({[(Z)-(6-Iodo-1,3-dioxo-2,3-dihydroisoquinolin-4(1H)-ylidene)methyl]amino}methyl)-2-propoxyphenyl chloroacetate], the IC50 was 13.8 µM at cyclin D1/cdk 4 enzyme (setting [1]); above 50 µM on cyclin E/CDK2 enzyme; above 50 µM at cyclin B/CDK1 enzyme (setting [2]); 0.9 µM with LoVo (LoVo cells, SRB, three days); 2.2 µM in the assay on MCF-7 (MCF-7 cells, SRB, three days); 0.69 µM in the assay with BT474 (BT474 cells, SRB, 6 days). Moreover, the IC50 in the assay with HCT-116 (HCT116 cells, SRB, three days) was 0.78 µM.
For the molecule `CN1CCN(c2ccc(N/C=C3\C(=O)NC(=O)c4ccc(-c5ccc(OC(F)(F)F)cc5)cc43)cc2)CC1` [Example 298, (4Z)-4-({[4-(4-Methylpiperazin-1-yl)phenyl]amino}methylene)-6-[4-(trifluoromethoxy)phenyl]isoquinoline-1,3(2H,4H)-dione], the IC50 is 29 µM on cyclin D1/cdk 4 enzyme (setting [1]); above 50 µM at cyclin E/CDK2 enzyme; 40.6 µM on cyclin B/CDK1 enzyme (setting [2]); 9.8 µM with LoVo (LoVo cells, SRB, three days); 2.8 µM with MCF-7 (MCF-7 cells, SRB, three days); 6.3 µM with BT474 (BT474 cells, SRB, 6 days). Also, the IC50 in the assay with HCT-116 (HCT116 cells, SRB, three days) is 2.1 µM.
On to `C=CC(=O)Nc1ccc(CN/C=C2\C(=O)NC(=O)c3ccc(Br)cc32)cc1O` [Example 301, N-[4-({[(Z)-(6-Bromo-1,3-dioxo-2,3-dihydroisoquinolin-4(1H)-ylidene)methyl]amino}methyl)-2-hydroxyphenyl]acrylamide], for which the IC50 at cyclin D1/cdk 4 enzyme (setting [1]) was 0.09 µM; at cyclin E/CDK2 enzyme, 8.4 µM; on cyclin B/CDK1 enzyme (setting [2]), above 50 µM; in the assay on LoVo (LoVo cells, SRB, three days), 0.17 µM; in the assay on MCF-7 (MCF-7 cells, SRB, three days), 0.2 µM; with BT474 (BT474 cells, SRB, 6 days) it was 0.14 µM. Also, in the assay with HCT-116 (HCT116 cells, SRB, three days), the IC50 was 0.17 µM.
`CC(C)[Si](Oc1cc(CN/C=C2\C(=O)NC(=O)c3ccc(Br)cc32)ccc1N)(C(C)C)C(C)C` [Example 303, (4Z)-4-[({4-Amino-3-[(triisopropylsilyl)oxy]benzyl}amino)methylene]-6-bromoisoquinoline-1,3(2H,4H)-dione]: the IC50 on cyclin D1/cdk 4 enzyme (CDK4 IC50, In Vitro Enzyme Assays) turned out to be 0.39 µM; at cyclin E/CDK2 enzyme, 3.7 µM; against cyclin B/CDK1 enzyme (CDK1 IC50, In Vitro Enzyme Assays) it was 33.9 µM; in the assay with LoVo (LoVo cells, SRB, three days) it was 4.6 µM; with MCF-7 (MCF-7 cells, SRB, three days), 10 µM; in the assay with BT474 (BT474 cells, SRB, 6 days), 3.1 µM. The IC50 with HCT-116 (HCT116 cells, SRB, three days) was found to be 5.3 µM.
In the case of `CN(C)CCCCCN/C=C1\C(=O)NC(=O)c2ccc(Br)cc21` [Example 304, (Z)-6-Bromo-4-((5-(dimethylamino)pentylamino)methylene)isoquinoline-1,3(2H,4H)-dione], the IC50 is 1.5 µM at cyclin D1/cdk 4 enzyme (setting [1]); 36.3 µM at cyclin E/CDK2 enzyme; above 50 µM at cyclin B/CDK1 enzyme (setting [2]); 6.7 µM in the assay with LoVo (LoVo cells, SRB, three days); 7.1 µM with MCF-7 (MCF-7 cells, SRB, three days); 16 µM in the assay on BT474 (BT474 cells, SRB, 6 days). Further, the IC50 in the assay on HCT-116 (HCT116 cells, SRB, three days) was 13 µM.
